Measured values published in patent US20150297629A1, “MODULATION OF RENIN-ANGIOTENSIN SYSTEM (RAS) RELATED DISEASES BY ANGIOTENSINOGEN” (Isis Pharmaceuticals, Inc,, priority 2012, published 2015).

Legend:
angiotensinogen mRNA = assay: Real-time PCR of angiotensinogen mRNA in SHR tissues, Study 3; assay type: in vivo, Spontaneously hypertensive (SHR) rats; conditions: 3 weeks, oligonucleotides 100 mg/kg/week, Captopril 150 mg/kg/day
Protocol: (§1) A group of SHR was injected with 100 mg/kg/week of ISIS 552668 administered for 3 weeks. A control group of SHR was injected with phosphate buffered saline (PBS) administered weekly for 3 weeks. Another control group of SHR was injected with 100 mg/kg/week of a control oligonucleotide (a nucleotide not targeted to angiotensinogen) administered for 3 weeks.
[…] The mRNA levels were normalized using the housekeeping gene, GAPDH. […] Results are presented as percent inhibition of angiotensinogen, relative to control.

angiotensinogen protein = assay: ELISA of angiotensinogen plasma levels in SHR, Study 3; assay type: in vivo, Spontaneously hypertensive (SHR) rats; conditions: 3 weeks, oligonucleotides 100 mg/kg/week, Captopril 150 mg/kg/day
Protocol: as §1
Angiotensinogen plasma levels were measured by ELISA (IBL International, Toronto, Canada). […] Results are presented as percent inhibition of angiotensinogen, relative to PBS control.

female SHR rats = assay: Blood pressure by tail-cuff method in female SHR rats with subsequent Captopril, Study 2; assay type: in vivo, Spontaneously hypertensive (SHR) rats; conditions: Captopril 50 mg/kg/day for 4 days, no ASO
Protocol: A control group of female SHR rats was injected with phosphate buffered saline (PBS) administered weekly for 2 weeks. Another control group constituted a group of wild-type rats injected with phosphate buffered saline (PBS) administered weekly for 2 weeks. […] Systolic blood pressure (SBP), mean arterial pressure (MAP), and diastolic blood pressure (DBP) in the rats was measured by the tail-cuff volume-pressure method (Kent Scientific, Torrington, Conn.).

SHR [1] = assay: Systolic blood pressure by tail-cuff method in SHR before and after ISIS 552668 added to chronic Captopril, Study 4; assay type: in vivo, Spontaneously hypertensive (SHR) rats; conditions: for Blood pressure (SBP), After ISIS 552668 dosing: then 50 mg/kg ISIS 552668 added
renin mRNA = assay: Real-time PCR of kidney renin mRNA in SHR, Study 3; assay type: in vivo, Spontaneously hypertensive (SHR) rats; conditions: 3 weeks
Protocol: A control group of SHR was injected with phosphate buffered saline (PBS) administered weekly for 3 weeks. Another control group of SHR was injected with 100 mg/kg/week of a control oligonucleotide (a nucleotide not targeted to angiotensinogen) administered for 3 weeks. […] RNA was extracted from kidney tissue for real-time PCR analysis of renin, using primer probe set rRenin2 (forward sequence [NT], designated herein as SEQ ID NO: 21; reverse sequence [NT], designated herein as SEQ ID NO: 22; probe sequence [NT], designated herein as SEQ ID NO: 23). The mRNA levels were normalized using the housekeeping gene, GAPDH. […] Increase in renin in the body is deleterious to the overall health of the animal (Nguyen and Muller, The Biology of the (Pro)Renin Receptor, J Am Soc Nephrol, 2010 January, 21(1):18-23). […] Results are presented as percent expression of renin, relative to control.

Dahl/SS rats = assay: Blood pressure by tail-cuff method in Dahl/SS rats; assay type: in vivo, Dahl/Salt Sensititive (Dahl/SS) rats; conditions: female Dahl/SS rats, 8% NaCl diet; 3 weeks; ISIS oligonucleotides 40 mg/kg/week, Captopril 150 mg/kg daily
Protocol: The rats were fed a diet with 8% NaCl. A group of female Dahl/SS rats was injected with 40 mg/kg/week of ISIS 552668 administered for 3 weeks. A group of female Dahl/SS rats was injected with 40 mg/kg/week of control oligonucleotides ISIS 141923 administered for 3 weeks. […] A control group of female Dahl/SS rats was injected with phosphate buffered saline (PBS) administered weekly for 3 weeks. Another control group constituted a group of Dahl/Salt Resistant (Dahl/SR) rats injected with phosphate buffered saline (PBS) administered weekly for 3 weeks.
Systolic blood pressure (SBP), mean arterial pressure (MAP), and diastolic blood pressure (DBP) in the rats was measured by the tail-cuff volume-pressure method (Kent Scientific). The results are presented in Table 12, expressed as the percent decrease in blood pressure compared to the control SHR group.

SHR [2] = assay: Mean arterial pressure by tail-cuff method in SHR, Study 3; assay type: in vivo, Spontaneously hypertensive (SHR) rats; conditions: ISIS 552668 and control oligonucleotide 100 mg/kg/week, Captopril 150 mg/kg/day
Protocol: A control group of SHR was injected with phosphate buffered saline (PBS) administered weekly for 3 weeks. Another control group of SHR was injected with 100 mg/kg/week of a control oligonucleotide (a nucleotide not targeted to angiotensinogen) administered for 3 weeks. […] Mean arterial pressure (MAP) in the rats was measured by the tail-cuff volume-pressure method (Kent Scientific, Torrington, Conn.).

[3] = Captopril 25 mg/kg/day for 10 weeks
[4] = Captopril 50 mg/kg/day for 10 weeks
[5] = Captopril 100 mg/kg/day for 10 weeks

**Q.** For `C[C@H](CS)C(=O)N1CCC[C@H]1C(=O)O` [Captopril, reference compound], which “Percent inhibition of angiotensinogen mRNA compared to the PBS control, Heart” value (angiotensinogen mRNA) is on record?
**A.** 0%

**Q.** What about the “Percent inhibition of angiotensinogen mRNA compared to the PBS control, Kidney” value (angiotensinogen mRNA) of the same compound?
**A.** 41%

**Q.** What about the “Percent inhibition of angiotensinogen mRNA compared to the PBS control, Liver” value (angiotensinogen mRNA) of the same compound?
**A.** 0%

**Q.** What about the “Percent inhibition of angiotensinogen protein in the plasma compared to the PBS control” value (angiotensinogen protein) of the same compound?
**A.** 24%

**Q.** What about the DBP (female SHR rats) of the same compound?
**A.** 97 mm Hg

**Q.** And the MAP (female SHR rats)?
**A.** 113 mm Hg

**Q.** What about the SBP (female SHR rats) of the same compound?
**A.** 145 mm Hg

**Q.** What about the “Blood pressure (SBP), Before ISIS 552668 dosing” value (SHR [1]; [3]) of the same compound?
**A.** 159

**Q.** And the “Blood pressure (SBP), After ISIS 552668 dosing” value (SHR [1]; [3])?
**A.** 153

**Q.** What about the “Blood pressure (SBP), Before ISIS 552668 dosing” value (SHR [1]; [4]) of the same compound?
**A.** 147

**Q.** What about the “Blood pressure (SBP), After ISIS 552668 dosing” value (SHR [1]; [4]) of the same compound?
**A.** 133

**Q.** And the “Blood pressure (SBP), Before ISIS 552668 dosing” value (SHR [1]; [5])?
**A.** 137

**Q.** And the “Blood pressure (SBP), After ISIS 552668 dosing” value (SHR [1]; [5])?
**A.** 127

**Q.** What about the “Blood pressure (SBP), Before ISIS 552668 dosing” value (SHR [1]; Captopril 200 mg/kg/day for 10 weeks) of the same compound?
**A.** 135

**Q.** And the “Induction of kidney renin expression compared to that with ISIS 552668” value (renin mRNA; Captopril 150 mg/kg/day versus ISIS 552668 100 mg/kg/week)?
**A.** about three-fold

**Q.** And the “Percent increase of kidney renin mRNA” value (renin mRNA; oligonucleotides 100 mg/kg/week, Captopril 150 mg/kg/day, PBS = 100)?
**A.** 1110%

**Q.** And the DBP (Dahl/SS rats)?
**A.** 111 mm Hg

**Q.** What about the MAP (Dahl/SS rats) of the same compound?
**A.** 128 mm Hg

**Q.** And the SBP (Dahl/SS rats)?
**A.** 162 mm Hg

**Q.** What about the “MAP, Week 1” value (SHR [2]) of the same compound?
**A.** 107 mm Hg

**Q.** And the “MAP, Week 2” value (SHR [2])?
**A.** 109 mm Hg

**Q.** What about the “MAP, Week 3” value (SHR [2]) of the same compound?
**A.** 112 mm Hg
